In one series the test system is anthrax spores. The arrangement: species or system murine (A/J mice). Conditions: mouse, in vivo.
The conditions of series [1]: mouse, in vivo.
For the next series, the system named is IL-1beta. The series is classed as cell-based.
Series [2] concerns H3N2/Wuhan influenza virus. The arrangement: species or system cotton rat. To be noted: rat, in vivo.
Series [3] deals with B. anthracis Sterne spores. Also on record: species or system Mice of the A/J strain. To be noted: mouse, in vivo.
The next series has as its system IL-10. The series is classed as cell-based.
For the next series, the system named is IL-6. Also on record: species or system cotton rat. To be noted: rat, in vivo.
Series [4] concerns IL-1beta, IL-6, IL-10, TNF-alpha, Toll-Like Receptors (TLRs), NODs, SOCS. The class given is cell-based.

Values joined by “and” are separate entries in the source; they are usually repeats but may differ in a detail not shown here. Identical values can stand only once. “Also recorded” adds a separate entry of the source.

For “Sar^9, Met(O2)^11-Substance P [Viprovex]”, in the series with anthrax spores, the “increase in survival rates” value stood at 240%; the “protection against anthrax-induced death” value was “partially protect against anthrax-induced death”; the “protection from death, time course” value is “clearly protected from death as early as 5 days post-exposure; also recorded: maintained survival from approximately day 10 onward”; the survival rate is 68.8% and 62.5%. Further, the “survival, of the animals that would otherwise have died” value in the series with anthrax spores is listed as 20-70%. Besides, the toxicity result in series [1] was “no toxicity was observed”. The “IL-1 mRNA increase relative to IL-6 increase” value in the series on IL-1beta was 28 ×. In addition, the “efficacy against influenza virus infection” value in series [2] is “provides therapeutic efficacy in animal models of infection by influenza virus; also recorded: more resistant to the effects of H3N2/Wuhan influenza virus”. In series [3], the inhibition of lethality result is “dose dependent inhibition of lethality” and the “treated animals that died” value is 2 of the 6. The “IL-10 mRNA increase relative to IL-6 increase” value in the series with IL-10 was 21 ×. In addition, in the series with IL-6, the “IL-6 levels in the lungs” value was “do not significantly increase”; the “Il-6, single animals” value is 1.623 and 1.253 and 2.458 and 2.167 and 3.013 and 0 and 2.416 and 7.483 and 1.791. Moreover, the “elevation of components of the host immune system” value in series [4] was “elevation of cytokines, interleukins, TLR, defensins and other components of immune surveillance; also recorded: elevate multiple components of the host immune system”.

The values above are taken from US20090137492A1 (priority 2006, published 2009).
